The source of these data is ChEMBL document CHEMBL4138126, “Synthesis, antiproliferative, anti-tubulin activity, and docking study of new 1,2,4-triazoles as potential combretastatin analogues” (Eur J Med Chem, 2017).

What all share (format): functional
The test system of experiment [1] is HepG2. Briefly: Induction of cell cycle arrest in human HepG2 cells assessed as accumulation at G1 phase at cytotoxic IC50 by propidium iodide staining based flow cytometry (reference value: 66.4%). On the technique in general: A flow cytometer gives signals particle by particle.
Experiment [2] deals with HepG2. Kind of experiment: Induction of apoptosis in human HepG2 cells assessed as viable cells level at 1.41 uM by Annexin V and propidium iodide staining based flow cytometry.
For experiment [3], the system named is HepG2. Kind of experiment: Induction of apoptosis in human HepG2 cells assessed as early apoptotic cells level at 1.41 uM by Annexin V and propidium iodide staining based flow cytometry.
Experiment [4] deals with HepG2. Briefly: Induction of apoptosis in human HepG2 cells assessed as late apoptotic cells level at 1.41 uM by Annexin V and propidium iodide staining based flow cytometry.
In experiment [5] the test system is HepG2. Briefly: Induction of apoptosis in human HepG2 cells assessed as necrotic cells level at 1.41 uM by Annexin V and propidium iodide staining based flow cytometry.

Consider `CCOc1ccc(-n2nc(C(=O)NCc3cc(F)cc(F)c3)nc2-c2cc(OC)c(OC)c(OC)c2)cc1`, for which the Activity in experiment [1] amounted to 35.4%; in experiment [2], 62%; in experiment [3], 21%; in experiment [4], 14%; in experiment [5], 3%.
